Source: patent US11643782B2, “Method for controlling growth of microorganisms and/or biofilms in an industrial process” (Kemira Oyj, priority 2017, dated 2023)

Legend:
Type in all cases: cell-based
[1] = test system: Meiothermus silvanus biofilms; assay: Prevention of biofilm formation (96-microwell peg-lid plates, Crystal Violet staining); settings: for Biofilm quantity, Abs. at 595 nm / Biofilm reduction: 48 h contact time
Source text: (§1) Pure cultures of Meiothermus silvanus, a microbe species commonly found in paper machine biofilms (Ekman J, Journal of Industrial Microbiology & Biotechnology 34:203-211) and Pseudoxanthomonas taiwanensis, another species commonly found in paper machine environments (Desjardins, E & Beaulieu, C, Journal of Industrial Microbiology & Biotechnology 30:141-145) were used to study the efficacy of various chemicals to prevent biofilm formation.
(§2) Biofilm tests were done in either synthetic commercial R2-broth (Lab M Ltd, UK) or fibre-containing synthetic paper machine water, SPW (prepared according to Peltola, et al., J. Ind. Microbiol. Biotechnol. 2011, 38: 1719-1727) using 96-microwell plate wells with peg lids (Thermo Fischer Scientific Inc., USA). Plates were incubated at 45° C. with a rotary shaking (150 rpm) providing high flow in each well.
(§3) For experiments of preventing biofilm formation wells of 96-microwell plates with peg-lids were filled with R2-broth or SPW, inoculated with the pure bacterial cultures and treated with different amounts of chemical compounds to be tested. Peg-lid was put on. After 24 hours the wells were emptied and a fresh solution of pure culture containing SPW or R2 broth with different amounts of test chemicals were added to the wells and the original peg-lid was put back in place. After an additional 24 hours, i.e. 48 hours after starting the test, the wells were emptied, rinsed and the peg lid and wells were left to dry.
(§4) The amount of biofilm formed on the microwells and peg surfaces was quantified with a staining solution by adding 200 μl of 1% Crystal Violet (Merck Millipore KGaA, Germany) in methanol to each well and placing the peg-lid back on. After 3 minutes the wells were emptied and the wells and pegs were rinsed 3 times with tap water. The attached Crystal Violet was dissolved into ethanol and the absorbance at 595 nm was measured. The values shown in the following tables are average absorbance from 8 replicate wells and pegs.
(§5) All absorbance values in Examples 1-8 are given actual measured values. In calculation for biofilm reduction percentages it was taken in account that the SPW alone for 2 days without any bacterial inoculum gave a background value of 0.14.

[2] = test system: Pseudoxanthomonas taiwanensis biofilms; assay: Removal of existing (preformed) biofilm (96-microwell peg-lid plates, Crystal Violet staining); settings: for Biofilm quantity, Abs. at 595 nm / Biofilm reduction: SPW, 45° C., 150 rpm, 24 h pre-growth and 24 h contact time; for Removal of already formed biofilms (in words): synthetic paper machine water, high temperature, fibres present, high flow
Source text: as §1, §2
(§6) For experiments of removing already existing (preformed) biofilm wells of 96-microwell plates with peg-lids were filled with SPW, inoculated with the pure bacterial cultures. Biofilm was grown for 24 hours without addition of any chemical compound to be tested. In some experiments after 24 hours the procedure was repeated by emptying the wells and by addition of a fresh solution of SPW inoculated with pure bacterial culture, again without any test chemical compound. The original peg-lid was put back in place and biofilm was allowed to grow for additional 24 h, i.e. in total 48 h.
(§7) After 24 or 48 hours after starting the test, the wells were emptied and a fresh solution of SPW, inoculated with the pure bacterial cultures and with different amounts of chemical compounds to be tested were added and the original peg-lid was placed back in place. After an additional 2 or 24 hours the wells were emptied, rinsed and the peg lid and wells were left to dry.
as §4, §5

[3] = test system: Meiothermus silvanus biofilms; assay: as above; settings: for Biofilm quantity, Abs. at 595 nm / Biofilm reduction: SPW, 45° C., 150 rpm, 24 h pre-growth and 24 h contact time
Source text: as §1, §2, §6, §7, §4, §5

[4] = test system: Pseudoxanthomonas taiwanensis biofilms; assay: Prevention of biofilm formation (96-microwell peg-lid plates, Crystal Violet staining); settings: for Biofilm quantity, Abs. at 595 nm / Biofilm reduction / Biofilm quantity, Abs at 595 nm: 48 h contact time
Source text: as §1, §2, §3, §4, §5

[5] = Table 5, dosage 0.06 mg/l active compound, SPW, 45° C., 150 rpm
[6] = Table 5, dosage 0.2 mg/l active compound, SPW, 45° C., 150 rpm
[7] = Table 9, dosage 0.2 mg/l active compound
[8] = Table 9, dosage 0.4 mg/l active compound
[9] = Table 7, dosage 0.2 mg/l active compound
[10] = Table 7, dosage 0.6 mg/l active compound
[11] = Table 6, dosage 0.06 mg/l active compound, SPW, 45° C., 150 rpm
[12] = Table 6, dosage 0.2 mg/l active compound, SPW, 45° C., 150 rpm
[13] = dosage 0.2 mg/l active compound
[14] = dosage 0.6 mg/l active compound
[15] = active compound, synthetic paper machine water, high temperature, fibres present, high flow
[16] = dosage 0.2 mg/l active ingredient, SPW, 45° C., 150 rpm
[17] = dosage 0.6 mg/l active ingredient, SPW, 45° C., 150 rpm
[18] = dosage 1 mg/l active ingredient, SPW, 45° C., 150 rpm

Compound: N#C/C=C/S(=O)(=O)c1ccccc1 [Compound C, (2E)-3-phenylsulphonyl-2-propenenitrile]
- Biofilm quantity, Abs. at 595 nm [1, 5]: 0.64
- Biofilm reduction [1, 5]: 29.7%
- Biofilm quantity, Abs. at 595 nm [1, 6]: 0.15
- Biofilm reduction [1, 6]: 98.2%
- Biofilm quantity, Abs. at 595 nm [2, 7]: 0.15
- Biofilm reduction [2, 7]: 98.5%
- Biofilm quantity, Abs. at 595 nm [2, 8]: 0.15
- Biofilm reduction [2, 8]: 99.0%
- Removal of already formed biofilms (in words) [2]: remove already formed biofilms

Compound: Cc1cc(C)c(S(=O)(=O)/C=C/C#N)c(C)c1 [Compound D, (2E)-3-[(2,4,6-trimethylphenyl)sulphonyl]-2-propenenitrile]
- Biofilm quantity, Abs. at 595 nm [2, 9]: 2.07
- Biofilm reduction [2, 9]: 8.4%
- Biofilm quantity, Abs. at 595 nm [2, 10]: 0.18
- Biofilm reduction [2, 10]: 97.9%
- Removal of already formed biofilms (in words) [2]: remove already formed biofilms

Compound: N#C/C=C/S(=O)(=O)c1ccc(C(F)(F)F)cc1 [Compound E, (2E)-3-[(4-trifluormethylphenyl)sulphonyl]-2-propenenitrile]
- Biofilm quantity, Abs. at 595 nm [1, 11]: 1.43
- Biofilm reduction [1, 11]: 38.8%
- Biofilm quantity, Abs. at 595 nm [1, 12]: 0.14
- Biofilm reduction [1, 12]: 99.6%

Compound: COc1ccc(S(=O)(=O)/C=C/C#N)cc1 [Compound F, (2E)-3-[(4-methoxyphenyl)sulphonyl]-2-propenenitrile]
- Biofilm quantity, Abs. at 595 nm [3, 13]: 1.21
- Biofilm reduction [3, 13]: 6.4%
- Biofilm quantity, Abs. at 595 nm [3, 14]: 0.86
- Biofilm reduction [3, 14]: 37.3%
- Removal of already formed biofilms (in words) ([3]; synthetic paper machine water, high temperature, fibres present, high flow): remove already formed biofilms

Compound: N#CC(Br)(Br)C(N)=O [DBNPA, 2,2-dibromo-3-nitrilopropionamide]
- Dosage required to reach acceptable or noticable biofilm reduction efficacy [4, 15]: 1 mg/I
- Biofilm quantity, Abs. at 595 nm [4, 16]: 1.46
- Biofilm reduction [4, 16]: 12.6%
- Biofilm quantity, Abs. at 595 nm [4, 17]: 1.23
- Biofilm reduction [4, 17]: 27.8%
- Biofilm quantity, Abs. at 595 nm [4, 18]: 0.14
- Biofilm reduction [4, 18]: 99.9%
- Dosage required to reach acceptable or noticable biofilm reduction efficacy [1, 15]: 1 mg/I
- Biofilm quantity, Abs. at 595 nm [1, 16]: 0.57
- Biofilm reduction [1, 16]: 16.9%
- Biofilm quantity, Abs. at 595 nm [1, 17]: 0.35
- Biofilm reduction [1, 17]: 60.7%
- Biofilm quantity, Abs. at 595 nm [1, 18]: 0.15
- Biofilm reduction [1, 18]: 98.8%

Compound: Gramicidin
- Biofilm quantity, Abs. at 595 nm ([4]; dosage 3 mg/l, R2-broth): 2.80
- Biofilm reduction ([4]; dosage 3 mg/l, R2-broth): −0.8%
- Biofilm quantity, Abs at 595 nm ([4]; dosage 3 mg/l, SPW): 2.25
- Biofilm reduction ([4]; dosage 3 mg/l, SPW): 5.4%
- Biofilm quantity, Abs. at 595 nm ([4]; dosage 10 mg/l, R2-broth): 2.55
- Biofilm reduction ([4]; dosage 10 mg/l, R2-broth): 8.7%
- Biofilm quantity, Abs at 595 nm ([4]; dosage 10 mg/l, SPW): 2.41
- Biofilm reduction ([4]; dosage 10 mg/l, SPW): −1.8%
- Biofilm quantity, Abs. at 595 nm ([4]; dosage 25 mg/l, R2-broth): 0.19
- Biofilm reduction ([4]; dosage 25 mg/l, R2-broth): 98.1%
- Biofilm quantity, Abs at 595 nm ([4]; dosage 25 mg/l, SPW): 2.42
- Biofilm reduction ([4]; dosage 25 mg/l, SPW): −2.2%
- Biofilm quantity, Abs. at 595 nm ([1]; dosage 0.2 mg/l, R2-broth): 1.40
- Biofilm reduction ([1]; dosage 0.2 mg/l, R2-broth): 13.7%
- Biofilm quantity, Abs. at 595 nm ([1]; dosage 0.2 mg/l, SPW): 1.33
- Biofilm reduction ([1]; dosage 0.2 mg/l, SPW): 2.5%
- Biofilm quantity, Abs. at 595 nm ([1]; dosage 1 mg/l, R2-broth): 0.66
- Biofilm reduction ([1]; dosage 1 mg/l, R2-broth): 64.4%
- Biofilm quantity, Abs. at 595 nm ([1]; dosage 1 mg/l, SPW): 1.41
- Biofilm reduction ([1]; dosage 1 mg/l, SPW): −4.1%
- Biofilm quantity, Abs. at 595 nm ([1]; dosage 3 mg/l, R2-broth): 0.17
- Biofilm reduction ([1]; dosage 3 mg/l, R2-broth): 97.9%
- Biofilm quantity, Abs. at 595 nm ([1]; dosage 3 mg/l, SPW): 0.45
- Biofilm reduction ([1]; dosage 3 mg/l, SPW): 74.6%
- Biofilm quantity, Abs. at 595 nm ([1]; dosage 10 mg/l, R2-broth): 0.14
- Biofilm reduction ([1]; dosage 10 mg/l, R2-broth): 100.0%
- Biofilm quantity, Abs. at 595 nm ([1]; dosage 10 mg/l, SPW): 0.19
- Biofilm reduction ([1]; dosage 10 mg/l, SPW): 95.9%
